From patent US20100190817A1, “LARGE SUBSTITUENT, NON-PHENOLIC AMINE OPIOIDS” (RENSSELAER POLYTECHNIC INSTITUTE, priority 2008, published 2010)

Key:
[1] = system: guinea pig μ receptors; conditions: cited from earlier work
[2] = system: mice; conditions: cited from earlier work; for duration of action (antinociception): 1 mg/kg ip in mice
[3] = system: κ opioid receptors; conditions: cited from earlier work
[4] = molecular target: human μ opioid receptor (Homo sapiens, UniProt P35372); assay: Opioid receptor binding assay, [3H]DAMGO (μ)
[5] = molecular target: human κ opioid receptor (Homo sapiens, UniProt P41145); assay: Opioid receptor binding assay, [3H]U69,593 (κ)
[6] = molecular target: human δ opioid receptor (Homo sapiens, UniProt P41143); assay: Opioid receptor binding assay, [3H]naltrindole (δ)
Chain of human δ opioid receptor (P41143 whole entry): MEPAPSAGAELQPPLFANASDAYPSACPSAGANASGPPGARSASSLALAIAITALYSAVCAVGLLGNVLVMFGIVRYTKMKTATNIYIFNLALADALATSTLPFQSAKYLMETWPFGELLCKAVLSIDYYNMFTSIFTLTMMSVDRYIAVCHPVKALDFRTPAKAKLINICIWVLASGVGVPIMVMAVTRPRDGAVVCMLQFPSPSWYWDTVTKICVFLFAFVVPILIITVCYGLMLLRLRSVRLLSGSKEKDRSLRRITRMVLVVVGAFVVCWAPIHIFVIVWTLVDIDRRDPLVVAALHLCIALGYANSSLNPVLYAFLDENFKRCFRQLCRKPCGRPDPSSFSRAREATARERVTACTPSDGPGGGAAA

Chain of human κ opioid receptor (P41145 whole entry): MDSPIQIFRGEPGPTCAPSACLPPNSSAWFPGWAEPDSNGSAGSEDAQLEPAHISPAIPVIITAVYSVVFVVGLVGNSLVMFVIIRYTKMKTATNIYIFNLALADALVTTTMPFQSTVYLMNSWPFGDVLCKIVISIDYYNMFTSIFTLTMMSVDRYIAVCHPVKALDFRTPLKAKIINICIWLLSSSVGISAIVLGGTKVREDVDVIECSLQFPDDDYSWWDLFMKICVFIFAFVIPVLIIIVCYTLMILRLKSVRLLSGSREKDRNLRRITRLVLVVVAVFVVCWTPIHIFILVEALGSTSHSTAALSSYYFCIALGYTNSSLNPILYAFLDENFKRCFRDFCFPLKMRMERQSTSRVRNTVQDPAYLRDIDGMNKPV
Chain of human μ opioid receptor (P35372 whole entry): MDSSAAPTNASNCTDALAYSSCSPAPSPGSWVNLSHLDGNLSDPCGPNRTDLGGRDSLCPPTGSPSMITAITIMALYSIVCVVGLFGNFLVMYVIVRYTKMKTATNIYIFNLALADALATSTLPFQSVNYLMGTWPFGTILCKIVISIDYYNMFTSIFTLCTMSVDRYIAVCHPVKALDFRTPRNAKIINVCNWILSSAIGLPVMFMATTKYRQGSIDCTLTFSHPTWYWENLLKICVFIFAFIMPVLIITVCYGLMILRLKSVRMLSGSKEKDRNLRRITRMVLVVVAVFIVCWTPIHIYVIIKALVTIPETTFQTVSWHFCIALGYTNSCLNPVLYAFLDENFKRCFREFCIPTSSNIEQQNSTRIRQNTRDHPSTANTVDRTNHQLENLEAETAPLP

Row | SMILES | affinity for μ opioid receptors [1] | duration of action (antinociception) [2] [h] | antinociception activity ([2]; studies in vivo) | affinity for κ opioid receptors [3] | Ki [4] [nM] | Ki [5] [nM] | Ki [6] [nM]
1 | C[C@H]1C2Cc3ccc(C(N)=O)cc3[C@@]1(C)CCN2CC1CC1 [Example 8-CAC, 8-carboxamidocyclazocine] | high affinity | 15 | high antinociception activity | high affinity |  |  | 
2 | CC1C2Cc3ccc(C(=O)NCCc4ccc(-c5cccc(N(C)C)c5)cc4)cc3C1(C)CCN2CC1CC1 (centres unmarked) [SJJ-B-074c] |  |  |  |  | 0.18 ± 0.055 | 0.26 ± 0.022 | 2.5 ± 0.17
3 | CC1C2Cc3ccc(C(=O)NCCc4ccc(-c5ccc(N)cc5)cc4)cc3C1(C)CCN2CC1CC1 (centres unmarked) [SJJ-B-112g] |  |  |  |  | 0.0014 ± 0.0001 | 0.39 ± 0.0085 | 1.5 ± 0.078
4 | CC1C2Cc3ccc(C(=O)NCCc4ccc(-c5ccc(CN(C)C)cc5)cc4)cc3C1(C)CCN2CC1CC1 (centres unmarked) [SJJ-C-013b] |  |  |  |  | 0.094 ± 0.0054 | 1.9 ± 0.014 | 3.7 ± 0.15
5 | CC1C2Cc3ccc(C(=O)NCCc4ccc(-c5ccc(NC(=O)OC(C)(C)C)cc5)cc4)cc3C1(C)CCN2CC1CC1 (centres unmarked) [SJJ-C-027b] |  |  |  |  | 0.32 ± 0.015 | 3.4 ± 0.32 | 3.1 ± 0.34
6 | C[C@H]1[C@H]2Cc3ccc(O)cc3[C@]1(C)CCN2CC1CC1 [cyclazocine] |  | 2 |  |  |  |  | 
